From article PMC11003488 (Journal of Enzyme Inhibition and Medicinal Chemistry, 2023)
Read-outs that look alike come from different tables or passages of the source.

Experiments:
[1] = test system: CCRF-CEM; experiment: NCI-60 SRB growth inhibition, one-dose and five-dose; format: cell-based; details: Homo sapiens
[2] = test system: K-562; experiment: as above; format: cell-based; details: Homo sapiens
[3] = test system: MOLT-4; experiment: as above; format: cell-based; details: Homo sapiens
[4] = test system: SR; experiment: as above; format: cell-based; details: Homo sapiens
[5] = test system: A549/ATCC; experiment: as above; format: cell-based; details: Homo sapiens
[6] = test system: EKVX; experiment: as above; format: cell-based; details: Homo sapiens
[7] = test system: HOP-92; experiment: as above; format: cell-based; details: Homo sapiens
[8] = test system: NCI-H23; experiment: as above; format: cell-based; details: Homo sapiens
[9] = test system: NCI-H322M; experiment: as above; format: cell-based; details: Homo sapiens
[10] = test system: NCI-H460; experiment: as above; format: cell-based; details: Homo sapiens
[11] = test system: NCI-H522; experiment: as above; format: cell-based; details: Homo sapiens
[12] = test system: COLO 205; experiment: as above; format: cell-based; details: Homo sapiens
[13] = test system: HCT-15; experiment: as above; format: cell-based; details: Homo sapiens
[14] = test system: HT29; experiment: as above; format: cell-based; details: Homo sapiens
[15] = test system: SW-620; experiment: as above; format: cell-based; details: Homo sapiens
[16] = test system: SF-268; experiment: as above; format: cell-based; details: Homo sapiens
[17] = test system: SF-295; experiment: as above; format: cell-based; details: Homo sapiens
[18] = test system: SNB-19; experiment: as above; format: cell-based; details: Homo sapiens
[19] = test system: SNB-75; experiment: as above; format: cell-based; details: Homo sapiens
[20] = test system: U251; experiment: as above; format: cell-based; details: Homo sapiens
[21] = test system: LOX IMVI; experiment: as above; format: cell-based; details: Homo sapiens
[22] = test system: MALME-3M; experiment: as above; format: cell-based; details: Homo sapiens
[23] = test system: M14; experiment: as above; format: cell-based; details: Homo sapiens
[24] = test system: SK-MEL-2; experiment: as above; format: cell-based; details: Homo sapiens, SK-MEL-2, read-out: percent growth inhibition
[25] = test system: SK-MEL-28; experiment: as above; format: cell-based; details: Homo sapiens
[26] = test system: SK-MEL-5; experiment: as above; format: cell-based; details: Homo sapiens
[27] = test system: UACC-257; experiment: as above; format: cell-based; details: Homo sapiens
[28] = test system: OVCAR-3; experiment: as above; format: cell-based; details: Homo sapiens
[29] = test system: OVCAR-4; experiment: as above; format: cell-based; details: Homo sapiens
[30] = test system: OVCAR-5; experiment: as above; format: cell-based; details: Homo sapiens
[31] = test system: NCI/ADR-RES; experiment: as above; format: cell-based; details: Homo sapiens
[32] = test system: SK-OV-3; experiment: as above; format: cell-based; details: Homo sapiens
[33] = test system: 786-0; experiment: as above; format: cell-based; details: Homo sapiens
[34] = test system: A498; experiment: as above; format: cell-based; details: Homo sapiens
[35] = test system: CAKI-1; experiment: as above; format: cell-based; details: Homo sapiens
[36] = test system: RXF 393; experiment: as above; format: cell-based; details: Homo sapiens
[37] = test system: DU-145; experiment: as above; format: cell-based; details: Homo sapiens
[38] = test system: MCF7; experiment: as above; format: cell-based; details: Homo sapiens
[39] = test system: BT-549; experiment: as above; format: cell-based; details: Homo sapiens
[40] = test system: T-47D; experiment: as above; format: cell-based; details: Homo sapiens, T47D
[41] = test system: MDA-MB-468; experiment: as above; format: cell-based; details: Homo sapiens
[42] = test system: NCI 60-cell line panel (full panel); experiment: NCI-60 SRB growth inhibition, full panel mean / MG-MID; format: cell-based, human; details: for GI50: Homo sapiens, 60 cell
[43] = read-out: percent growth inhibition

Structure (SMILES): CC(=O)Nc1ccc(CNc2cccc(C(=O)/C=C/c3cccnc3)c2)cc1 [Compound 5b, (E)-N-(4-(((3–(3-(pyridin-3-yl)acryloyl)phenyl)amino)methyl)phenyl)acetamide]
- GI50 [1]: 2.8 µM
- inhibition at 10 µM [1, 43]: 141%
- GI50 ([2]; K562): 2.52 µM
- inhibition at 10 µM ([2]; K562, read-out: percent growth inhibition): 99.8%
- GI50 ([3]; MOLT-4): 2.88 µM
- inhibition at 10 µM ([3]; MOLT-4, read-out: percent growth inhibition): 128%
- GI50 [4]: 2.01 µM
- GI50 ([5]; A549): 14.9 µM
- inhibition at 10 µM ([5]; A549, read-out: percent growth inhibition): 27.8%
- GI50 [6]: 4.87 µM
- inhibition at 10 µM [6, 43]: 94.2%
- GI50 ([7]; HOP-92): 8.47 µM
- inhibition at 10 µM ([7]; HOP-92, read-out: percent growth inhibition): 68.5%
- GI50 ([8]; NCI-H23): 3.22 µM
- inhibition at 10 µM ([8]; NCI-H23, read-out: percent growth inhibition): 148%
- GI50 [9]: 13.7 µM
- inhibition at 10 µM [9, 43]: 29.6%
- GI50 ([10]; NCI-H460): 2.87 µM
- inhibition at 10 µM ([10]; NCI-H460, read-out: percent growth inhibition): 107%
- GI50 ([11]; NCI-H522): 1.67 µM
- inhibition at 10 µM ([11]; NCI-H522, read-out: percent growth inhibition): 165%
- GI50 ([12]; COLO 205): 10.9 µM
- inhibition at 10 µM ([12]; COLO 205, read-out: percent growth inhibition): 156%
- GI50 ([13]; HCT-15): 2.05 µM
- inhibition at 10 µM ([13]; HCT-15, read-out: percent growth inhibition): 138%
- GI50 ([14]; HT-29): 2.19 µM
- inhibition at 10 µM ([14]; HT-29, read-out: percent growth inhibition): 182%
- GI50 ([15]; SW-620): 1.83 µM
- inhibition at 10 µM ([15]; SW-620, read-out: percent growth inhibition): 169%
- GI50 ([16]; SF-268): 13.6 µM
- inhibition at 10 µM ([16]; SF-268, read-out: percent growth inhibition): 88.6%
- GI50 ([17]; SF-295): 10.3 µM
- inhibition at 10 µM ([17]; SF-295, read-out: percent growth inhibition): 91.9%
- GI50 ([18]; SNB-19): 3.61 µM
- inhibition at 10 µM ([18]; SNB-19, read-out: percent growth inhibition): 99.1%
- GI50 ([19]; SNB-75): 8.99 µM
- inhibition at 10 µM ([19]; SNB-75, read-out: percent growth inhibition): 31.8%
- GI50 ([20]; U-251): 1.9 µM
- inhibition at 10 µM ([20]; U-251, read-out: percent growth inhibition): 166%
- GI50 [21]: 1.65 µM
- inhibition at 10 µM [21, 43]: 199%
- GI50 [22]: 2.19 µM
- inhibition at 10 µM [22, 43]: 132%
- GI50 ([23]; M14): 2.91 µM
- inhibition at 10 µM ([23]; M14, read-out: percent growth inhibition): 141%
- inhibition at 10 µM [24]: 52.7%
- GI50 ([25]; SK-MEL-28): 1.96 µM
- inhibition at 10 µM ([25]; SK-MEL-28, read-out: percent growth inhibition): 166%
- GI50 ([26]; SK-MEL-5): 6.51 µM
- inhibition at 10 µM ([26]; SK-MEL-5, read-out: percent growth inhibition): 174%
- GI50 ([27]; UACC-257): 9.35 µM
- inhibition at 10 µM ([27]; UACC-257, read-out: percent growth inhibition): 120%
- GI50 ([28]; OVCAR-3): 2.85 µM
- inhibition at 10 µM ([28]; OVCAR-3, read-out: percent growth inhibition): 190%
- GI50 ([29]; OVCAR-4): 8.63 µM
- inhibition at 10 µM ([29]; OVCAR-4, read-out: percent growth inhibition): 88.5%
- GI50 ([30]; OVCAR-5): 3.44 µM
- inhibition at 10 µM ([30]; OVCAR-5, read-out: percent growth inhibition): 103%
- GI50 [31]: 3.12 µM
- inhibition at 10 µM [31, 43]: 91.1%
- GI50 ([32]; SK-OV-3): 13.9 µM
- inhibition at 10 µM ([32]; SK-OV-3, read-out: percent growth inhibition): 15.2%
- GI50 ([33]; 786-0): 3.43 µM
- inhibition at 10 µM ([33]; 786-0, read-out: percent growth inhibition): 160%
- GI50 ([34]; A498): 13.4 µM
- inhibition at 10 µM ([34]; A498, read-out: percent growth inhibition): 17.5%
- GI50 ([35]; CAKI-1): 12.2 µM
- inhibition at 10 µM ([35]; CAKI-1, read-out: percent growth inhibition): 95.9%
- GI50 ([36]; RXF 393): 3.09 µM
- inhibition at 10 µM ([36]; RXF 393, read-out: percent growth inhibition): 194%
- GI50 ([37]; DU-145): 5.15 µM
- inhibition at 10 µM ([37]; DU-145, read-out: percent growth inhibition): 92.2%
- GI50 ([38]; MCF7): 1.38 µM
- inhibition at 10 µM ([38]; MCF7, read-out: percent growth inhibition): 178%
- GI50 ([39]; BT-549): 2.78 µM
- inhibition at 10 µM ([39]; BT-549, read-out: percent growth inhibition): 174%
- GI50 [40]: 4.14 µM
- inhibition at 10 µM [40, 43]: 82%
- GI50 ([41]; MDA-MB-468): 1.67 µM
- inhibition at 10 µM ([41]; MDA-MB-468, read-out: percent growth inhibition): 175%
- GI50 ([42]; read-out: Full panel GI50 mean): 4.65 µM
- GI50 ([42]; read-out: Full panel MG-MID GI50): 4.65 µM
- Full panel Mean GI % ([42]; mean over NCI-60 panel, single dose 10 µM): 123.16%
